What follows are compounds tested against T1, human IDO1 (Homo sapiens, UniProt P14902) (assay: human IDO1/HEK293 cell IDO inhibition assay (kynurenine production)). Conditions: HEK293 cells stably expressing human IDO1; 20 hours incubation; absorbance at 490 nm; read-out: Biol. Activity (HEK μM) IDO IC50.
T1 construct: expressed in transfected cells
Type: cell-based
Protocol: HEK293 cells were transfected with a pCDNA-based mammalian expression vector harboring human IDO1 cDNA (NM 002164.2) by electroporation. They were cultured in medium (DMEM with 10% FBS) containing 1 mg/ml G418 for two weeks. Clones of HEK293 cells that stably expressed human IDO1 protein were selected and expanded for IDO inhibition assay.
The human IDO1/HEK293 cells were seeded at 10,000 cells per 50 μL per well with RPMI/phenol red free media contains 10% FBS in a 384-well black wall clear bottom tissue culture plate (Matrix Technologies LLC) 100 nL of certain concentration of compound was then added to each well using ECHO liquid handling systems. The cells were incubated for 20 hours in 37° C. incubator with 5% CO2.
The compound treatments were stopped by adding trichloroacetic acid (Sigma-Aldrich) to a final concentration at 0.2%. The cell plate was further incubated at 50° C. for 30 minute. The equal volume supernatant (20 μL) and 0.2% (w/v) Ehrlich reagent (4-dimethylaminobenzaldehyde, Sigma-Aldrich) in glacial acetic acid were mixed in a new clear bottom 384-well plate. This plate was then incubated at room temperature for 30 minute. The absorbance at 490 nm was measured on Envision plate reader.
Compound IC50 values were calculated using the counts of 500 nM of a reference standard treatment as one hundred percent inhibition, and counts of no compound but DMSO treatment as zero percent inhibition.

T1 sequence (P14902 whole entry): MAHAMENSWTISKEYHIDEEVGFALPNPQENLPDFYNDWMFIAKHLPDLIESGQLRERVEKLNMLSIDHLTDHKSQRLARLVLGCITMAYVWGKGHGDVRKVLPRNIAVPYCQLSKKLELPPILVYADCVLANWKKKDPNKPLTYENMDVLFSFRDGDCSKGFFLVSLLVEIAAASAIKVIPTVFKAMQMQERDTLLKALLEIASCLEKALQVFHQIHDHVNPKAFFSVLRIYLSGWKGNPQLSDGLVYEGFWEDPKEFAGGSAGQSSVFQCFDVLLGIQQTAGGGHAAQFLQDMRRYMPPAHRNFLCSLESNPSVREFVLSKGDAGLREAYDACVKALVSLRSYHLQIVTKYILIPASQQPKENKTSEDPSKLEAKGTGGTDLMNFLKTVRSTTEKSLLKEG

Compound | IC50 [µM]
O=C(Cc1ccc(Cl)cc1)N(Cc1ccccc1)[C@H]1CC[C@H](c2ccnc3ccc(F)cc32)CC1 [Example 1, N-benzyl-2-(4-chlorophenyl)-N-(trans-4-(6-fluoroquinolin-4-yl)cyclohexyl)acetamide] | < 10
O=C(c1ccc(Cl)cc1)N(Cc1ccccc1)[C@H]1CC[C@H](c2ccnc3ccc(F)cc32)CC1 [Example 2, N-benzyl-4-chloro-N-(trans-4-(6-fluoroquinolin-4-yl)cyclohexyl)benzamide] | < 1
O=C(Cc1ccc(Cl)cc1)N(Cc1ccccc1)[C@H]1CC[C@@H](c2ccnc3ccc(F)cc32)CC1 [Example 4, N-benzyl-2-(4-chlorophenyl)-N-(cis-4-(6-fluoroquinolin-4-yl)cyclohexyl)acetamide] | < 10
N#Cc1ccc(C(=O)N(Cc2ccccc2)[C@H]2CC[C@H](c3ccnc4ccc(F)cc43)CC2)cc1 [Example 3, N-benzyl-4-cyano-N-(trans-4-(6-fluoroquinolin-4-yl)cyclohexyl)benzamide] | < 10

Source: patent US10323004B2, “Inhibitors of indoleamine 2,3-dioxygenase and methods of their use” (BRISTOL-MYERS SQUIBB COMPANY, priority 2016, dated 2019)
